The values that follow are results of earlier work, collected in US9260408B2, “Dihydroquinoline-2-one derivatives” (Hoffmann-La Roche Inc., priority 2011, dated 2016).

Series [1] deals with rats with experimental heart failure. Particulars: rat, in vivo; cited from earlier work.
Series [2] relates to rat model of chronic kidney disease. Particulars: cited from earlier work.
In a further series the target is CYP11B2 (Homo sapiens, UniProt P19099). The settings on record: patients with primary aldosteronism, cited from earlier work.
Sequence of CYP11B2 (P19099 25-503): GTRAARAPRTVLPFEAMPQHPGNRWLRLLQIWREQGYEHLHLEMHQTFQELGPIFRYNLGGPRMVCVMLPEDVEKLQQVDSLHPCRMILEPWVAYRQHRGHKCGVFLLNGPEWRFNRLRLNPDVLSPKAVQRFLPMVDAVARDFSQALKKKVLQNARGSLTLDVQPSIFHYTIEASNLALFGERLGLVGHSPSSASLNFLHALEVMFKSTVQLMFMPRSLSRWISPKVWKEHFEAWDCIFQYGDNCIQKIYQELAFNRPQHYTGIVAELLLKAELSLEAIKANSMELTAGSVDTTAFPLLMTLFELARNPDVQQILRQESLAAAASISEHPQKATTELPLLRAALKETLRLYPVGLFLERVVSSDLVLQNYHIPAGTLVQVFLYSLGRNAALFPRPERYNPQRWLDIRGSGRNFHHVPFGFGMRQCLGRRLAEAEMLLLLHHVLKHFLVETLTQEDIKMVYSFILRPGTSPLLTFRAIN

Take `N#Cc1ccc(C2CCCc3cncn32)cc1` (stereo not drawn) [FAD286]: in series [1], the “blood pressure and cardiovascular function and structure” value was “improved”; the “kidney function and morphology” value is reported as “improve”. For the same molecule, the plasma aldosterone entry in series [2] (FAD286: 4 weeks of treatment, spironolactone: 4 and 8 weeks of treatment) was “reduced”. In series [2] (angiotensin II and high salt treatment), the “renal effects (albuminuria, azotemia, renovascular hypertrophy, glomerular injury, PAI-1 and osteopontin mRNA, tubulointerstitial fibrosis)” value is “prevented these renal effects”. The “angiotensin II and salt-stimulated PAI-1 mRNA expression in the aorta and the heart” value in series [2] (rat, in vivo) is listed as “not”.
For the molecule `N#Cc1ccc([C@H]2CCc3cncn32)c(F)c1` [LCI699], at CYP11B2 (oral), the circulating aldosterone levels result is on record as “significantly lower”. Besides, on CYP11B2, the blood pressure entry is “mildly decreased”, the hypokalemia entry is recorded as “corrected” and the “selectivity (effects on the glucocorticoid axis)” value was “poor selectivity”.
